# Where two headings read alike, the source gives them in different places.
# Target: tick anticoagulant peptide (TAP) (Ornithodoros moubata, UniProt P17726)
# Sequence (P17726 whole entry): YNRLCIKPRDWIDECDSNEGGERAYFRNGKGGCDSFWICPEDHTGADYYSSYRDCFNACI
smiles,measurement,setting,value
[Cl-].[Na+] [NaCl],reduction of the extent of denaturation of TAP by 8M urea,in the presence of 0.5 M NaCl,23%
same,reduction of the extent of denaturation of TAP by 8M urea,in the presence of 1M NaCl,50%
same,reversal of the structure of denatured TAP,"in the presence of urea, after addition of the protein stabilizer (FIG. 7 column 3)",converts back to the native structure
